*1 amine or outer side, *2 acyl side, *3 side chain or, on linkers, in order; H or OH if unused. Where a SMILES comes first, the peptide text is derived from it. [ ]: non-standard residue; d: D form. The star is where a group is joined. Abu(ψCOCO) = CC[C@H](N[*:1])C(=O)C(=O)[*:2]; Boc = CC(C)(C)OC(=O)*; OtBu = CC(C)(C)O*; NHAllyl = C=CCN*
Target: NS3 (Hepatitis C virus, UniProt A3EZJ3)
Assay: Inhibition against hepatitis C virus protease NS3 activity
Design: species or system Hepacivirus hominis

Chain of NS3 (A3EZJ3 whole entry): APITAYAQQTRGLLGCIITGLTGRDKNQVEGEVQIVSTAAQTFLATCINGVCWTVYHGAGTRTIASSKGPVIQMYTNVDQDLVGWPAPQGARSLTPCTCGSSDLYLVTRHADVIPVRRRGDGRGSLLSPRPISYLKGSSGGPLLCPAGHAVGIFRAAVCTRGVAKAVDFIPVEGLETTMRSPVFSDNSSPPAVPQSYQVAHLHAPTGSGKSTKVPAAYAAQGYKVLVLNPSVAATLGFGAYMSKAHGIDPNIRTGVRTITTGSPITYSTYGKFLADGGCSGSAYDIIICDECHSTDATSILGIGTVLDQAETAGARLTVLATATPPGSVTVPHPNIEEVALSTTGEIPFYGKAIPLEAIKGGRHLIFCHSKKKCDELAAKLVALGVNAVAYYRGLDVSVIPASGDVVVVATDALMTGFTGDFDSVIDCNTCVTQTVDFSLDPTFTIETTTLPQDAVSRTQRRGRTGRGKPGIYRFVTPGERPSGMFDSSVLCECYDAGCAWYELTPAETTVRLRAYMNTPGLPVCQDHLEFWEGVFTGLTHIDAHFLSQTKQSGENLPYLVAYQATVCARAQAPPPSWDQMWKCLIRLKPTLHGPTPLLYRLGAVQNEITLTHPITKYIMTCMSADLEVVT

IC50 | Compound
4.8 µM | C=CCC(NC(=O)[C@H]1CCCN1C(=O)[C@@H](NC(=O)[C@@H](NC(=O)[C@H](CCC(=O)O)NC(=O)[C@@H](N)CC(=O)O)C(C)C)C(C)C)C(=O)C(=O)CC(C)C (stereo partly specified)
> 30 µM | C=CCC(NC(=O)[C@H]1CCCN1C(=O)[C@@H](NC(=O)[C@@H](NC(=O)[C@H](CCC(=O)OC(C)(C)C)NC(=O)[C@H](CC(=O)OC(C)(C)C)NC(=O)OC(C)(C)C)C(C)C)C(C)C)C(=O)C(=O)OC (stereo partly specified)
0.35 µM | C=CCC(NC(=O)[C@H]1CCCN1C(=O)[C@@H](NC(=O)[C@@H](NC(=O)[C@H](CCC(=O)O)NC(=O)[C@@H](N)CC(=O)O)C(C)C)C(C)C)C(=O)C(=O)NCC (stereo partly specified)
4.34 µM | C=CCC(NC(=O)[C@H]1CCCN1C(=O)[C@@H](NC(=O)[C@@H](NC(=O)[C@H](CCC(=O)O)NC(=O)[C@@H](N)CC(=O)O)C(C)C)C(C)C)C(=O)C(=O)OC (stereo partly specified)
4.23 µM | C=CCC(NC(=O)[C@H]1CCCN1C(=O)[C@@H](NC(=O)[C@@H](NC(=O)[C@H](CCC(=O)O)NC(=O)[C@@H](N)CC(=O)O)C(C)C)C(C)C)C(=O)C(=O)C1CC=CCC1 (stereo partly specified)
> 30 µM | C=CCC(NC(=O)[C@H]1CCCN1C(=O)[C@@H](NC(=O)[C@@H](NC(=O)[C@H](CCC(=O)OC(C)(C)C)NC(=O)[C@H](CC(=O)OC(C)(C)C)NC(=O)OC(C)(C)C)C(C)C)C(C)C)C(=O)C(=O)CC(C)C (stereo partly specified)
0.57 µM | C=CCNC(=O)C(=O)C(CC=C)NC(=O)[C@H]1CCCN1C(=O)[C@@H](NC(=O)[C@@H](NC(=O)[C@H](CCC(=O)OC(C)(C)C)NC(=O)[C@H](CC(=O)OC(C)(C)C)NC(=O)OC(C)(C)C)C(C)C)C(C)C (stereo partly specified)
0.34 µM | C=CCNC(=O)C(=O)C(CC=C)NC(=O)[C@H]1CCCN1C(=O)[C@@H](NC(=O)[C@@H](NC(=O)[C@H](CCC(=O)O)NC(=O)[C@@H](N)CC(=O)O)C(C)C)C(C)C (stereo partly specified)
0.84 µM | C=CCNC(=O)C(=O)[C@H](CC)NC(=O)[C@@H]1CCCN1C(=O)[C@@H](NC(=O)[C@@H](NC(=O)[C@H](CCC(=O)OC(C)(C)C)NC(=O)[C@H](CC(=O)OC(C)(C)C)NC(=O)OC(C)(C)C)C(C)C)C(C)C (Boc-D(OtBu)E(OtBu)VVP[Abu(ψCOCO)]-NHAllyl)
0.42 µM | C=CCNC(=O)C(=O)[C@H](CC)NC(=O)[C@@H]1CCCN1C(=O)[C@@H](NC(=O)[C@@H](NC(=O)[C@H](CCC(=O)O)NC(=O)[C@@H](N)CC(=O)O)C(C)C)C(C)C (H-DEVVP[Abu(ψCOCO)]-NHAllyl)
2.5 µM | Ac-DEVVPC-OH
